Results published in patent US10875829B1, “Azetidine derivatives useful as modulators of cortical catecholaminergic neurotransmission” (Integrative Research Laboratories Sweden AB, priority 2016, dated 2020).
Counter-ions that a name gives are not always drawn.

Test system: SERT, NET and/or DAT
Experiment: Radioligand binding assays at the monoamine transporters, general statements
Set-up: species or system human
Settings: concentration of each tested compound 10 μM
Text: A serotonin-norepinephrine-dopamine reuptake inhibitor (SNDRI), also known as a triple reuptake inhibitor (TRI), is a type of drug that acts as a combined reuptake inhibitor of the monoamine neurotransmitters serotonin, norepinephrine, and dopamine. It does this by concomitantly inhibiting the serotonin transporter (SERT), norepinephrine transporter (NET), and dopamine transporter (DAT), respectively. Inhibition of the reuptake of these neurotransmitters increases their extracellular concentrations and, therefore, results in an increase in serotonergic, adrenergic, and dopaminergic neurotransmission across the brain. However, the use of triple re-uptake inhibitors (especially the inhibition of DAT) in humans are of potential concern due to abuse liability. Cocaine is the most well-known triple-uptake inhibitor and is widely encountered as a drug of abuse. […] One assay to measure affinity of said compounds as described herein may be the percent inhibition from radioligand binding assay using cells expressing human transporters and receptors (Table 5), wherein the concentration of each tested compound in such assay is 10 μM. Alternatively other assays known to the skilled person may be used to measure the affinity of said compounds, wherein the concentration of each tested compound in such assay is 10 μM.
Each compound was tested in a single concentration at 1.0 E-5 M and in duplicate. […]

Compound: Clc1ccc(OC2CNC2)cc1Cl [Reference Compound, 3-(3,4-dichlorophenoxy)azetidine hydrochloric acid salt, reference compound]
- affinity to SERT, NET and/or DAT (percent inhibition): higher than 75%
